Measurements published in the CheMixHub viscosity set.

Assay: xn = mol fraction of the nth substance listed

CCCCNCCCC + CCCCCO
viscosity [mPa·s], 101.33 kPa
Settings	x1 = 0.0971	x1 = 0.2014	x1 = 0.3007	x1 = 0.4003	x1 = 0.5004	x1 = 0.5841	x1 = 0.6901	x1 = 0.7836	x1 = 0.8845
303.15 K	2.493	2.178	1.913	1.676	1.473	1.319	1.142	1.006	0.8804
313.15 K	2.078	1.814	1.601	1.41	1.241	1.116	0.9767	0.8701	0.7633

OC(c1ccccc1)c1ccccc1 + CCCCCOC(C)=O
Settings	viscosity [mPa·s]
298.15 K, 101 kPa, x2 = 0.5	1.496

CCCCBr + CCCCO
viscosity [mPa·s], 101.33 kPa
Settings	x2 = 0.1114	x2 = 0.2168	x2 = 0.3241	x2 = 0.4255	x2 = 0.5172	x2 = 0.6158	x2 = 0.7127	x2 = 0.7911	x2 = 0.8968
298.15 K	0.63	0.685	0.759	0.86	0.983	1.158	1.394	1.636	2.046
308.15 K	0.554	0.588	0.638	0.706	0.793	0.918	1.086	1.261	1.581
318.15 K	0.495	0.522	0.561	0.613	0.679	0.771	0.899	1.029	1.264

CCCCNCCCC + CCCCO
Settings	viscosity [mPa·s]
298.15 K, 101.33 kPa, x1 = 0.0635	2.402
298.15 K, 101.33 kPa, x1 = 0.1073	2.317
298.15 K, 101.33 kPa, x1 = 0.1494	2.223
298.15 K, 101.33 kPa, x1 = 0.2108	2.071
298.15 K, 101.33 kPa, x1 = 0.2648	1.932
298.15 K, 101.33 kPa, x1 = 0.3259	1.78
298.15 K, 101.33 kPa, x1 = 0.3973	1.606
298.15 K, 101.33 kPa, x1 = 0.4697	1.447
298.15 K, 101.33 kPa, x1 = 0.5484	1.303
298.15 K, 101.33 kPa, x1 = 0.6286	1.172
298.15 K, 101.33 kPa, x1 = 0.7575	1.015
298.15 K, 101.33 kPa, x1 = 0.8182	0.962
298.15 K, 101.33 kPa, x1 = 0.8572	0.927
298.15 K, 101.33 kPa, x1 = 0.8972	0.888
298.15 K, 101.33 kPa, x1 = 0.923	0.883
303.15 K, 101 kPa, x1 = 0.01155	2.23
303.15 K, 101 kPa, x1 = 0.01803	2.213
303.15 K, 101 kPa, x1 = 0.02448	2.198
303.15 K, 101 kPa, x1 = 0.03423	2.177
303.15 K, 101 kPa, x1 = 0.04155	2.163
303.15 K, 101 kPa, x1 = 0.04858	2.15
303.15 K, 101 kPa, x1 = 0.05659	2.134
303.15 K, 101 kPa, x1 = 0.06332	2.12
303.15 K, 101 kPa, x1 = 0.1014	2.031
303.15 K, 101.33 kPa, x1 = 0.0951	2.122
303.15 K, 101.33 kPa, x1 = 0.1888	1.923
303.15 K, 101.33 kPa, x1 = 0.2886	1.712
303.15 K, 101.33 kPa, x1 = 0.3967	1.507
303.15 K, 101.33 kPa, x1 = 0.4924	1.34
303.15 K, 101.33 kPa, x1 = 0.5903	1.201
303.15 K, 101.33 kPa, x1 = 0.6884	1.078
303.15 K, 101.33 kPa, x1 = 0.7951	0.96
303.15 K, 101.33 kPa, x1 = 0.8941	0.8638
308.15 K, 101.33 kPa, x1 = 0.0635	1.828
308.15 K, 101.33 kPa, x1 = 0.1073	1.767
308.15 K, 101.33 kPa, x1 = 0.1494	1.698
308.15 K, 101.33 kPa, x1 = 0.2108	1.588
308.15 K, 101.33 kPa, x1 = 0.2648	1.485
308.15 K, 101.33 kPa, x1 = 0.3259	1.377
308.15 K, 101.33 kPa, x1 = 0.3973	1.255
308.15 K, 101.33 kPa, x1 = 0.4697	1.145
308.15 K, 101.33 kPa, x1 = 0.5484	1.042
308.15 K, 101.33 kPa, x1 = 0.6286	0.952
308.15 K, 101.33 kPa, x1 = 0.7575	0.841
308.15 K, 101.33 kPa, x1 = 0.8182	0.801
308.15 K, 101.33 kPa, x1 = 0.8572	0.776
308.15 K, 101.33 kPa, x1 = 0.8972	0.753
308.15 K, 101.33 kPa, x1 = 0.923	0.739
313.15 K, 101.33 kPa, x1 = 0.0951	1.68
313.15 K, 101.33 kPa, x1 = 0.1888	1.532
313.15 K, 101.33 kPa, x1 = 0.2886	1.38
313.15 K, 101.33 kPa, x1 = 0.3967	1.225
313.15 K, 101.33 kPa, x1 = 0.4924	1.106
313.15 K, 101.33 kPa, x1 = 0.5903	0.9976
313.15 K, 101.33 kPa, x1 = 0.6884	0.9063
313.15 K, 101.33 kPa, x1 = 0.7951	0.8105
313.15 K, 101.33 kPa, x1 = 0.8941	0.7369
318.15 K, 101.33 kPa, x1 = 0.0635	1.441
318.15 K, 101.33 kPa, x1 = 0.1073	1.395
318.15 K, 101.33 kPa, x1 = 0.1494	1.344
318.15 K, 101.33 kPa, x1 = 0.2108	1.263
318.15 K, 101.33 kPa, x1 = 0.2648	1.188
318.15 K, 101.33 kPa, x1 = 0.3259	1.108
318.15 K, 101.33 kPa, x1 = 0.3973	1.018
318.15 K, 101.33 kPa, x1 = 0.4697	0.938
318.15 K, 101.33 kPa, x1 = 0.5484	0.864
318.15 K, 101.33 kPa, x1 = 0.6286	0.798
318.15 K, 101.33 kPa, x1 = 0.7575	0.717
318.15 K, 101.33 kPa, x1 = 0.8182	0.687
318.15 K, 101.33 kPa, x1 = 0.8572	0.669
318.15 K, 101.33 kPa, x1 = 0.8972	0.65
318.15 K, 101.33 kPa, x1 = 0.923	0.642

CCOC(=O)C(=O)OCC + CCCCO
303.15 K, 101.33 kPa
Settings	viscosity [mPa·s]
x1 = 0.1064	1.803
x1 = 0.1924	1.613
x1 = 0.2954	1.496
x1 = 0.3832	1.438
x1 = 0.5033	1.405
x1 = 0.6097	1.405
x1 = 0.6734	1.419
x1 = 0.7804	1.461
x1 = 0.9074	1.556

COCCO + CCCCO
viscosity [mPa·s]
Settings	298.15 K	308.15 K	313.15 K	318.15 K
100 kPa, x1 = 0.1009	2.27	–	1.6	–
100 kPa, x1 = 0.2003	2.06	–	1.48	–
100 kPa, x1 = 0.3003	1.91	–	1.39	–
100 kPa, x1 = 0.4012	1.8	–	1.32	–
100 kPa, x1 = 0.5008	1.72	–	1.27	–
100 kPa, x1 = 0.6012	1.65	–	1.24	–
100 kPa, x1 = 0.7006	1.61	–	1.21	–
100 kPa, x1 = 0.7998	1.58	–	1.19	–
100 kPa, x1 = 0.9	1.56	–	1.18	–
101 kPa, x1 = 0.09765	2.212	1.688	–	1.266
101 kPa, x1 = 0.1958	2.061	1.583	–	1.212
101 kPa, x1 = 0.2945	1.948	1.49	–	1.172
101 kPa, x1 = 0.3937	1.88	1.355	–	1.117
101 kPa, x1 = 0.4934	1.813	1.304	–	1.063
101 kPa, x1 = 0.5937	1.767	1.248	–	1.046
101 kPa, x1 = 0.6944	1.723	1.219	–	1.036
101 kPa, x1 = 0.7957	1.674	1.191	–	0.996
101 kPa, x1 = 0.8976	1.622	1.179	–	0.9925
101.33 kPa, x1 = 0.1184	–	1.694	–	–
101.33 kPa, x1 = 0.2345	–	1.551	–	–
101.33 kPa, x1 = 0.3377	–	1.443	–	–
101.33 kPa, x1 = 0.4484	–	1.361	–	–
101.33 kPa, x1 = 0.5476	–	1.305	–	–
101.33 kPa, x1 = 0.6312	–	1.265	–	–
101.33 kPa, x1 = 0.7363	–	1.229	–	–
101.33 kPa, x1 = 0.9104	–	1.195	–	–

CCCC(C)O (stereo unspecified) + CCCCOC(C)=O
viscosity [mPa·s], 100 kPa
Settings	x2 = 0.0809	x2 = 0.1601	x2 = 0.2399	x2 = 0.3501	x2 = 0.44	x2 = 0.56	x2 = 0.65	x2 = 0.7398	x2 = 0.85	x2 = 0.9399
293.15 K	2.506	1.64	1.205	0.917	0.797	0.724	0.703	0.685	0.684	0.7
298.15 K	2.253	1.525	1.121	0.853	0.744	0.668	0.656	0.644	0.644	0.656
303.15 K	2.018	1.419	1.05	0.805	0.688	0.62	0.605	0.6	0.599	0.618
308.15 K	1.688	1.227	0.926	0.704	0.616	0.56	0.546	0.537	0.548	0.566
313.15 K	1.407	1.016	0.775	0.619	0.548	0.504	0.488	0.48	0.496	0.52
318.15 K	1.139	0.816	0.614	0.497	0.455	0.424	0.416	0.421	0.448	0.476
323.15 K	0.874	0.6	0.438	0.365	0.343	0.338	0.341	0.358	0.391	0.432

CCCCNCCCC + CCCCOCCO
viscosity [mPa·s], 100 kPa
Settings	298.15 K	303.15 K	308.15 K
x2 = 0.0501	0.94	0.85	0.8
x2 = 0.1169	1.1	1.01	0.93
x2 = 0.1502	1.19	1.07	1
x2 = 0.2006	1.34	1.17	1.08
x2 = 0.3001	1.58	1.35	1.25
x2 = 0.4001	1.82	1.55	1.43
x2 = 0.5	2.14	1.83	1.63
x2 = 0.5999	2.42	2.12	1.84
x2 = 0.6998	2.7	2.33	2.09
x2 = 0.8	2.97	2.5	2.28
x2 = 0.8965	3.1	2.61	2.38
x2 = 0.95	2.97	2.56	2.32

CCCCNCCCC + CCCO
viscosity [mPa·s], 101.33 kPa
Settings	x1 = 0.0988	x1 = 0.1893	x1 = 0.3012	x1 = 0.4041	x1 = 0.4964	x1 = 0.59	x1 = 0.693	x1 = 0.7809	x1 = 0.8947
303.15 K	1.681	1.564	1.404	1.276	1.176	1.084	0.9942	0.9209	0.832
313.15 K	1.309	1.228	1.123	1.03	0.9494	0.8887	0.8255	0.7761	0.7157

COCCO + CCO
viscosity [mPa·s], 101 kPa
Settings	x1 = 0.06304	x1 = 0.133	x1 = 0.206	x1 = 0.2876	x1 = 0.3771	x1 = 0.476	x1 = 0.5856	x1 = 0.7078	x1 = 0.8449
298.15 K	1.051	1.024	1.019	1.031	1.053	1.084	1.173	1.286	1.415
308.15 K	0.8342	0.8445	0.8576	0.8812	0.9063	0.9409	1.003	1.07	1.105
318.15 K	0.7622	0.7704	0.773	0.8002	0.847	0.868	0.911	0.923	0.9633
